What all share (experiment): growth of human tumour cells (NCI), 48 h
The subject of assay [1] is MDA-MB-435.
Assay [2] relates to XF498.
In assay [3] the test system is HOP-18.
Assay [4] relates to M19-MEL.
For assay [5], the system named is KM-20L2.
Assay [6] deals with DMS-114.
Assay [7] relates to DMS-273.
Assay [8] deals with SNB-78.

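Briefly, cells in 96-well plates were exposed to five compound concentrations for 48 h, and endpoints were estimated by linear interpolation. Abbreviation: GI50, concentration required for 50% inhibition of growth.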 Activity calls are given as the source filed them. Cut-off read from the data, not from the text of the source: active = GI50 up to about 1.1 µM and inactive = higher. A value given as a limit tells only on which side of the number the result lay.

As for `C=Cc1cnc([N+](=O)[O-])n1C`, in assay [1], the GI50 is 60.8 µM (inactive).

For the molecule `C=CC[N+]12CN3CN(CN(C3)C1)C2`, in assay [1], the GI50 was 19.7 µM (inactive).

In the case of `CSc1nc2nc(C)c(C)nc2c(=O)[nH]1`, the GI50 in assay [2], in assay [3], in assay [4], in assay [5], in assay [6] and in assay [7] was > 100 µM (inactive) each time.

For `CNc1ccc2c(c1)[C@@]1(C)c3ccccc3[C@@H](C2)N1C`, the GI50 in assay [1] was 19.1 µM (inactive).

Turning to `O=c1[nH]nc(-c2ccccc2)n1/N=C/c1ccccc1Cl`, the GI50 in assay [1] was 19.1 µM (inactive).

Regarding `COP(C)(=O)/C(Cc1ccccc1)=N\O` (configuration not stated), in assay [1], the GI50 is > 100 µM (inactive).

Regarding `COc1ccc2c(c1)OCCC1=C2SCC2(C)CCN=C12` (configuration not stated), the GI50 in assay [2] was > 100 µM (inactive); in assay [3], 48.3 µM (inactive); in assay [8], > 100 µM (inactive); in assay [5], 36.1 µM (inactive); in assay [6], 92 µM (inactive); in assay [7], > 100 µM (inactive).

For `CCOC(=O)c1ccc(C(=O)n2ccnc2)[nH]1`, in assay [1], the GI50 was > 100 µM (inactive).

`CCOC(=O)CC[C@H](NC(=O)c1nc[nH]c1/N=N/N(C)C)C(=O)OCC`: the GI50 in assay [2] is 15.3 µM (inactive); in assay [4], > 100 µM (inactive); in assay [6] it was > 100 µM (inactive); in assay [7] it was > 100 µM (inactive).

For the molecule `O=P1(O)c2ccccc2CS(=O)(=O)Cc2ccccc21`, the GI50 in assay [1] is > 100 µM (inactive).

As to `COc1ccc(/N=C\c2cc(OC)c(OC)c(OC)c2)cc1`, the GI50 in assay [2] is > 100 µM (inactive); in assay [3], > 100 µM (inactive); in assay [8], > 100 µM (inactive); in assay [4] it was > 100 µM (inactive); in assay [5] it was > 100 µM (inactive); in assay [6], 57.4 µM (inactive).

Take `COc1ccc(C(C2C(=O)N(C)C(=O)N(C)C2=O)C(F)(F)C(=O)N(C)C)cc1` (configuration not stated): the GI50 in assay [1] is > 100 µM (inactive).

Regarding `C=C1CC(C)(COc2ccc3c(C)c(C)c(=O)oc3c2C)OC1=O` (configuration not stated), in assay [1], the GI50 is 2.7 µM (inactive).

Take `COC(=O)Cc1c([C@H]2[C@H](CC(=O)OC)c3ccccc3N2C(=O)C(F)(F)F)[nH]c2ccccc12`: the GI50 in assay [1] is 21.9 µM (inactive).

For the molecule `C=C(NC(=O)C(=C)NC(=O)c1ccc2c(n1)-c1coc(n1)C(=C)NC(=O)C(=C)NC(=O)c1nc(oc1C)C(=C)NC(=O)C(C(C)(C)O)NC(=O)C(=C)NC(=O)c1coc(n1)/C(=C/C)NC(=O)[C@H]([C@@H](C)O)NC(=O)c1csc-2n1)C(N)=O` (some centres not stated), the GI50 in assay [1] was > 87.5 µM (inactive).

On to `COc1ccc(OCC(C)(C)O)cc1`, for which the GI50 in assay [2], in assay [3], in assay [8], in assay [5], in assay [6] and in assay [7] was > 100 µM (inactive) in each case.

Take `COc1cccc(/C=C2\C(=O)N(C(=O)Cc3ccccc3)N=C2C)c1`: the GI50 in assay [2] is > 100 µM (inactive); in assay [3], 12.4 µM (inactive); in assay [8] it was > 100 µM (inactive); in assay [4] it was > 100 µM (inactive); in assay [6], > 100 µM (inactive); in assay [7] it was > 100 µM (inactive).

As to `Cc1nc2ccc(S(=O)(=O)Nc3nccs3)cc2c(=O)n1NS(=O)(=O)c1nccs1`, in assay [1], the GI50 is 40.3 µM (inactive).

On to `C=C1COC(/C=C(\C)CC/C=C(\C)CCl)C1` (configuration not stated), for which the GI50 in assay [2], in assay [8], in assay [4], in assay [5], in assay [6] and in assay [7] was > 100 µM (inactive) in each case.

For the molecule `CC(C)(C)c1ccc(C(O)c2ccc(C(C)(C)C)cc2)cc1`, the GI50 in assay [2] was 15.1 µM (inactive); in assay [3] it was 17.5 µM (inactive); in assay [4], 13.7 µM (inactive); in assay [5], 17.7 µM (inactive); in assay [6] it was 12.7 µM (inactive); in assay [7], 12.6 µM (inactive).

As to `N#Cc1sc2c(c1OC(=O)c1ccc(Cl)cc1)c(=O)n(-c1ccccc1)c(=S)n2-c1ccccc1`, in assay [1], the GI50 is 20.6 µM (inactive).

As for `O=C1C(Cl)=C(N2CCSCC2)C(=O)c2c(O)ccc(O)c21`, the GI50 in assay [1] was 0.631 µM (active).

For `CC(C)=CCN1c2ccc(Cl)cc2NC(=O)CC1C` (configuration not stated), the GI50 in assay [1] is 19.5 µM (inactive).

Take `COc1ccc(-c2csc3c2[N+]2(C)C=CC=C2C3N2CCCC2)cc1` (configuration not stated): the GI50 in assay [1] is 3.13 µM (inactive).

Take `CCOC(=O)c1cn2c(n1)sc1cc([N+](=O)[O-])ccc12`: in assay [1], the GI50 was > 100 µM (inactive).

For `CC(=O)/C=C1\CC(=O)N(C)c2ccccc2N1`, the GI50 in assay [2] was > 100 µM (inactive); in assay [8], > 100 µM (inactive); in assay [4], > 100 µM (inactive); in assay [6] it was 29.3 µM (inactive); in assay [7], > 100 µM (inactive).

In the case of `C(=C\Nc1ccc(Oc2ccccc2)cc1)/C=N/c1ccc(Oc2ccccc2)cc1`, the GI50 in assay [1] was 17.4 µM (inactive).

For `CCCCCCCC(=O)OCC1OC(n2cc(F)c(=O)[nH]c2=O)C(NC(=O)OCc2ccccc2)C(OC(=O)CCCCCCC)C1O` (configuration not stated), the GI50 was 41.9 µM (inactive) in assay [8]; 23.6 µM (inactive) in assay [4]; 34.7 µM (inactive) in assay [5]; 24 µM (inactive) in assay [6]; 15.3 µM (inactive) in assay [7].

Turning to `CCOC(=O)C(NC(=O)N(C1=NCC(C)S1)C1CCCCC1)(OC)C(F)(F)F` (configuration not stated), in assay [1], the GI50 is 32.2 µM (inactive).

In the case of `CC(C)(CN1CCCCC1)C(=O)/C=C/c1c(Cl)cccc1Cl`, the GI50 in assay [1] was 0.7 µM (active).

Take `CSC(=N)N1N=C2/C(=C/c3ccccc3)CCC[C@H]2[C@H]1c1ccccc1`: the GI50 is 10.8 µM (inactive) in assay [2]; 1.07 µM (active) in assay [3]; 16 µM (inactive) in assay [8]; 2.34 µM (inactive) in assay [5]; 2.9 µM (inactive) in assay [6]; 2.75 µM (inactive) in assay [7].

Turning to `COc1cc(C)cc(OC)c1/C=C/C(=O)O`, in assay [1], the GI50 is > 100 µM (inactive).

Consider `Cc1ccc(S(=O)(=O)N/N=C2\C=C[C@]3(CC2)C(=O)N(C)c2ccccc23)cc1`, for which the GI50 in assay [1] is > 100 µM (inactive).

In the case of `CN(C)Cc1cc(/N=N/c2ccc(Cl)cc2)ccc1OC(=O)c1ccccc1`, in assay [1], the GI50 was 15.7 µM (inactive).

As for `CC1(c2nc3ccccc3[nH]2)CCC(C#N)C(C)(C)O1` (configuration not stated), the GI50 in assay [1] was > 100 µM (inactive).

`COc1cc(CO)c(CC(=O)NCCCc2ccccc2)cc1OC`: the GI50 in assay [1] is 56 µM (inactive).

In the case of `CCN(CCO)C(=O)C1(c2ccccc2)CCCCC1`, in assay [1], the GI50 is > 10 µM (inactive).

Regarding `CS(=O)(=O)c1n[nH]c2nc(O)nc(O)c12`, the GI50 in assay [1] was > 10 µM (inactive).

As to `COC(=O)c1ccc(NC(=O)c2cc(OC)c(OC)c(OC)c2)cc1`, the GI50 in assay [3] is 49.4 µM (inactive); in assay [4], 1.04 µM (active); in assay [5], 1.44 µM (inactive); in assay [6], 0.305 µM (active); in assay [7], 0.327 µM (active).

On to `CCCCCCc1cc2cc(C(=O)Nc3nc(C45CC6CC(CC(C6)C4)C5)cs3)c(=O)oc2cc1O`, for which the GI50 in assay [1] is 7.13 µM (inactive).

For the molecule `CCCOC1OC(CS(=O)(=O)O)C(O)C(O)C1O` (configuration not stated), in assay [1], the GI50 is > 100 µM (inactive).

For `S=C(S)N1CCN(c2ccccc2)CC1`, the GI50 in assay [1] was > 100 µM (inactive).

(Values after ChEMBL document CHEMBL1201862, “PubChem BioAssay data set” (2004).)
